Test results reported in patent publication EP0582261A1, “Cephalosporin compounds and processes for the preparation thereof” (LUCKY LTD., priority 1992, dated 1994).

How the values were obtained:
Assay in all cases: MIC, two-fold dilution method on Müller-Hinton agar
Assay type in all cases: cell-based
Conditions in all cases: incubated at 37°C for 20 hours
[1] = test system: Acinetobacter calcoaceticus ATCC 15473
Method: (§1) The same procedures as described in Example 163 were repeated using 7-amino-1,8-dimethyl[1,3]imidazo[1,2-c] pyrimidine-5-thione prepared in Preparation Example 36 in place of 7-amino-1-methyl[1,3]imidazo[1,2-c]pyrimidine-5-thione to yield 190mg and 180mg of the title compound(a) and (b), respectively, as white solids.
(§2) These MIC values were taken by employing a two-fold dilution method: that is, two-fold serial dilutions of each of the test compounds were made and dispersed in a Müller-Hinton agar medium; 2µl of the standard test strain which had the 10⁷ CFU(Colony Forming Unit) per ml was inoculated on the medium; and these were incubated at 37°C for 20 hours.

[2] = test system: Bacillus cereus ATCC 11778
Method: as §1, §2

[3] = test system: Bacillus megaterium ATCC 9885
Method: as §1, §2

[4] = test system: Citrobacter freundii ATCC 8090
Method: as §1, §2

[5] = test system: Enterobacter aerogenes ATCC 29751
Method: as §1, §2

[6] = test system: Enterobacter cloacae ATCC 27508
Method: as §1, §2

[7] = test system: Escherichia coli ATCC 10536
Method: as §1, §2

[8] = test system: Escherichia coli ATCC 25922
Method: as §1, §2

[9] = test system: Klebsiella pneumoniae ATCC 10031
Method: as §1, §2

[10] = test system: Micrococcus luteus ATCC 9341
Method: as §1, §2

[11] = test system: Morganella morganii ATCC 8076h
Method: as §1, §2

[12] = test system: Proteus mirabilis ATCC 25933
Method: as §1, §2

[13] = test system: Proteus vulgaris ATCC 6059
Method: as §1, §2

[14] = test system: Providencia rettgeri ATCC 9250
Method: as §1, §2

[15] = test system: Pseudomonas aeruginosa ATCC 10145
Method: as §1, §2

[16] = test system: Pseudomonas aeruginosa ATCC 25619
Method: as §1, §2

[17] = test system: Pseudomonas aeruginosa ATCC 27853
Method: as §1, §2

[18] = test system: Salmonella typhimurium ATCC 14028
Method: as §1, §2

[19] = test system: Serratia marcescens ATCC 27117
Method: as §1, §2

[20] = test system: Shigella flexneri ATCC 11836
Method: as §1, §2

[21] = test system: Shigella sonnei ATCC 11060
Method: as §1, §2

[22] = test system: Staphylococcus aureus ATCC 10537
Method: as §1, §2

[23] = test system: Staphylococcus aureus ATCC 6538p
Method: as §1, §2

[24] = test system: Staphylococcus epidermidis ATCC 12228
Method: as §1, §2

[25] = test system: Streptococcus faecalis ATCC 29212
Method: as §1, §2

Substance	MIC values against the standard strains [1] [µg/mL]	MIC values against the standard strains [2] [µg/mL]	MIC values against the standard strains [3] [µg/mL]	MIC values against the standard strains [4] [µg/mL]	MIC values against the standard strains [5] [µg/mL]	MIC values against the standard strains [6] [µg/mL]	MIC values against the standard strains [7] [µg/mL]	MIC values against the standard strains [8] [µg/mL]	MIC values against the standard strains [9] [µg/mL]	MIC values against the standard strains [10] [µg/mL]	MIC values against the standard strains [11] [µg/mL]	MIC values against the standard strains [12] [µg/mL]	MIC values against the standard strains [13] [µg/mL]	MIC values against the standard strains [14] [µg/mL]	MIC values against the standard strains [15] [µg/mL]	MIC values against the standard strains [16] [µg/mL]	MIC values against the standard strains [17] [µg/mL]	MIC values against the standard strains [18] [µg/mL]	MIC values against the standard strains [19] [µg/mL]	MIC values against the standard strains [20] [µg/mL]	also measured
7-[(Z)-2-(2-aminothiazol-4-yl)-2-((R)-1-carboxyprop-1-oxyimino)acetamido]-3-(7-amino-1-methyl [1,2,4]triazolo[1,5-c]pyrimidinium-5-yl)thiomethyl-3-cephem-4-carboxylate [Exp. 86]	2	16	0.031	0.13	0.25	≤0.008	0.13	0.063	≤0.008	≤0.008	≤0.008	0.13	0.13	≤0.008	2	1	1	0.25	0.25	0.031	MIC values against the standard strains [21]: 0.063 µg/mL; MIC values against the standard strains [22]: 0.13 µg/mL; MIC values against the standard strains [23]: 0.13 µg/mL; MIC values against the standard strains [24]: 0.25 µg/mL; MIC values against the standard strains [25]: 16 µg/mL
7-[(Z)-2-(2-aminothiazol-4-yl)-2-(2-carboxyprop-2-oxyimino)acetamido]-3-(7-amino-1-methyl [1,2,4]triazolo[1,5-c]pyrimidinium-5-yl)thiomethyl-3-cephem-4-carboxylate [Exp. 1]	4	128	0.25	0.13	1	0.016	0.063	0.13	0.063	0.13	≤0.008	0.13	0.063	≤0.008	2	1	1	0.25	0.25	0.031	MIC values against the standard strains [21]: 0.13 µg/mL; MIC values against the standard strains [22]: 4 µg/mL; MIC values against the standard strains [23]: 4 µg/mL; MIC values against the standard strains [24]: 1 µg/mL; MIC values against the standard strains [25]: >128 µg/mL
7-[(Z)-2-(5-amino-1,2,4-thiadiazol-3-yl)-2-(ethoxyimino)acetamido]-3-(7-amino-1-methyl[1,2,4] triazolo[1,5-c]pyrimidinium-5-yl)thiomethyl-3-cephem-4-carboxylate [Exp. 72]	1	16	0.063	0.063	0.25	≤0.008	0.063	0.063	0.016	0.016	≤0.008	0.25	0.5	≤0.008	4	1	4	0.25	0.25	0.031	MIC values against the standard strains [21]: 0.063 µg/mL; MIC values against the standard strains [22]: 0.13 µg/mL; MIC values against the standard strains [23]: 0.25 µg/mL; MIC values against the standard strains [24]: 0.25 µg/mL; MIC values against the standard strains [25]: 8 µg/mL
7-[(Z)-2-(2-aminothiazol-4-yl)-2-((R)-1-carboxyprop-1-oxyimino)acetamido]-3-(2,7-diamino-1-methyl[1,2,4]triazolo[1,5-c]pyrimidinium-5-yl)thiomethyl-3-cephem-4-carboxylate [Exp. 88]	1	8	0.031	0.13	0.13	≤0.008	0.13	0.063	≤0.008	≤0.008	≤0.008	0.13	0.063	≤0.008	1	0.5	1	0.13	0.25	0.031	MIC values against the standard strains [21]: 0.063 µg/mL; MIC values against the standard strains [22]: 0.13 µg/mL; MIC values against the standard strains [23]: 0.13 µg/mL; MIC values against the standard strains [24]: 0.031 µg/mL; MIC values against the standard strains [25]: 8 µg/mL
